According to US6436979B1 (priority 2000, dated 2002):
Read-outs that look alike come from different tables or passages of the source.

Test system: Phytophthora infestans
Format: in vivo
Settings: tomato leaves infected next day with zoospore suspension, evaluated after 6 days, untreated control 89% infection
[1] = conc. in the spray liquor 0.06 ppm
[2] = conc. in the spray liquor 0.25 ppm

Q: Which results are given for `COC(=O)N(OC)c1ccccc1COc1ccn(-c2ccc(Cl)cc2)n1` [Compound I.32]?
A: Efficacy in % of the untreated control [1]: 10%; Efficacy in % of the untreated control [2]: 55%

Q: Which “Efficacy in % of the untreated control” value [1] does the source give for `COC(=O)N(OC)c1ccccc1COc1ccn(-c2ccc(C)cc2)n1` [Compound I.38] here?
A: 0%

Q: And the “Efficacy in % of the untreated control” value [2]?
A: 33%

Q: Which “Efficacy in % of the untreated control” value [1] does the source give for `CNC(=O)C(=NOC)c1ccccc1COc1cc(C)ccc1C` [Compound III] here?
A: 0%

Q: And the “Efficacy in % of the untreated control” value [2]?
A: 33%

Q: `CON=C(C(=O)OC)c1ccccc1COc1ccccc1C` [Compound II] was tested. Which “Efficacy in % of the untreated control” value [1] did it give?
A: 10%

Q: `CC(C)OC(=O)NC(C(=O)NC(C)c1nc2ccc(F)cc2s1)C(C)C` (centres unmarked) [Compound IV/1] was tested. Which “Efficacy in % of the untreated control” value [1] did it give?
A: 21%
